Measurements: US4713369A, “Oligopeptidylargininol derivatives and their homologs, a process for their preparation, their use and agents containing them” (Behringwerke Aktiengellschaft, priority 1985, dated 1987)
Read-outs that look alike come from different tables or passages of the source. Each block holds one compound with its values, some of them ahead of it.

Tests used:
human α-thrombin = human α-thrombin (Homo sapiens, UniProt P00734)
Experimental: Test procedure: 700 μl of tris buffer, pH 8.2, are incubated with 100 μl of human α-thrombin (0.28 UI) and 100 μl of inhibitor solution at 37° C. for 5 min. After addition of 100 μl of Tos-Gly-Pip-Arg paranitroanilide (c×3 mMol/l), the extinction at 405 nm is measured.

[1] = system: spermatozoal endoprotease acrosin; conditions: results of Borin et al., Hoppe-Seyler's Z. Physiol. Chem. 362, 1435-1445, 1981; cited from earlier work
F Xa = F Xa (Homo sapiens, UniProt P00742); assay: Inhibitory action against F Xa, analogous procedure (substrate Bzl-Ile-Glu-Gly-Arg pNA); type: biochemical; conditions: final inhibitor concentration 0.6 mmol/1
From the text: F Xa substrate: Bzl-Ile-Glu-Gly-Arg pNA (50% of the Glu as the methyl ester) (c=3 mmol/liter)

plasmin = plasmin (Homo sapiens, UniProt P00747); assay: Inhibitory action against plasmin, analogous procedure (substrate D-norvalylcyclohexylalanylarginyl paranitroanilide); type: biochemical; conditions: final inhibitor concentration 0.6 mmol/1
From the text: (plasmin substrate: D-norvalylcyclohexylalanylarginyl paranitroanilide (c=3 mmol/l)).

plasmin, sequence (P00747 581-810 limits assumed, species assumed): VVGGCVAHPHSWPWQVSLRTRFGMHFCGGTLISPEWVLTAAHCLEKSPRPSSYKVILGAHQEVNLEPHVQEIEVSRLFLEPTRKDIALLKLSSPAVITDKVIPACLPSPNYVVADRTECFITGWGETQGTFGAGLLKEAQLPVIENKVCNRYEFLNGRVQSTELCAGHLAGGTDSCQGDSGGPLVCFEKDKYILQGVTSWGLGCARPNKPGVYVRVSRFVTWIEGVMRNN
plasmin, sequence (P00747 97-580 partner limits assumed, species assumed): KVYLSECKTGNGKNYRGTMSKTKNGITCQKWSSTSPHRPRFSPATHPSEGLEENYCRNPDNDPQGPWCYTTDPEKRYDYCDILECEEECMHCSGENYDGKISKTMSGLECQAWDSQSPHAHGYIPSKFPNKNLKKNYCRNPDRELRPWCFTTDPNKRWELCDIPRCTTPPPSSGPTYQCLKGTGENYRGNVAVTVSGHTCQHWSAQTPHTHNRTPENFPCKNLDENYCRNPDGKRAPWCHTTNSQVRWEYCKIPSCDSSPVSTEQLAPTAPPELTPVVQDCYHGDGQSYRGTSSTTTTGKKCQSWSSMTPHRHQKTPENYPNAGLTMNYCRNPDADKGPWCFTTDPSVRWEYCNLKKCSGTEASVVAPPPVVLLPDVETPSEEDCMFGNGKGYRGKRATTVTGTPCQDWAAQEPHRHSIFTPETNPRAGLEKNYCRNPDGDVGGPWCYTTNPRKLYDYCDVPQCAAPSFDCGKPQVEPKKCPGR
F Xa, sequence (P00742 235-488 limits assumed): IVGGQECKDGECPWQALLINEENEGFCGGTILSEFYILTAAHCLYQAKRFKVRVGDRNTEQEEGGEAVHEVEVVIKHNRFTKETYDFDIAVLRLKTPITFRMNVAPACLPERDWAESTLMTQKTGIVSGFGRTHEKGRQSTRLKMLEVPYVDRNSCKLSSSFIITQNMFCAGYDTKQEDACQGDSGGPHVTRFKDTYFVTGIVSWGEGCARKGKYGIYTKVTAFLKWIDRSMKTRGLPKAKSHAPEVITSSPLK
F Xa, sequence (P00742 41-179 partner limits assumed): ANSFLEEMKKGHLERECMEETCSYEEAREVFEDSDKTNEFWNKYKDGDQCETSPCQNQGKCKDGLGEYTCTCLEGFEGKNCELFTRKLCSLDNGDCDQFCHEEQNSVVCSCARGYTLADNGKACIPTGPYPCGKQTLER

action in the thrombin inhibition test, times less than that of H-D-Phe-Pro-Arg CH2 --OH (human α-thrombin; relative to H-D-Phe-Pro-Arg CH2 --OH): about 1,000 times
Compound: CC(C)(C)OC(=O)N[C@H](Cc1ccccc1)C(=O)N1CCC[C@H]1C(=O)N[C@H](CO)CCCNC(=N)N [Boc-D-Phe-Pro-Arg CH2 --OH]

Compound: Cl.Cl.NC(N)=NCCC[C@@H](COC(=O)c1ccc([N+](=O)[O-])cc1)NC(=O)[C@@H]1CCCN1C(=O)[C@H](N)Cc1ccccc1 [D-Phe-Pro-argininol-4-nitrobenzoate dihydrochloride]
inhibitory action on thrombin (in words) (human α-thrombin): approximately corresponded to that of 4-carboxyethylphenylε-guanidinocaproate

IC50 (human α-thrombin): 3.65 ± 0.05 µM
Compound: N=C(N)NCCCCCC(=O)Oc1ccc(CCC(=O)O)cc1 [4-carboxyethylphenyl ε-guanidinocaproate, reference compound]

Compound: CC(=O)O.CC(C)C[C@H](NC(=O)OC(C)(C)C)C(=O)N[C@@H](CC(C)C)C(=O)N[C@H](C=O)CCCNC(=N)N.O [Boc-Leu-Leu-argininal . acetic acid . H2 O]
inhibition of acrosin (in words) [1]: very active inhibitor

F X a inhibition (F Xa): 49 % inhibition | Plasmin inhibition (plasmin): 67 % inhibition | inhibitory action on thrombin (in words) (human α-thrombin): potent inhibition of thrombin | inhibitory action on thrombin (in words) (human α-thrombin; listed as D-phenylalanyl-L-prolyl-L-argininol): especially strong
Compound: N=C(N)NCCC[C@@H](CO)NC(=O)[C@@H]1CCCN1C(=O)[C@H](N)Cc1ccccc1.O=C(O)C(F)(F)F.O=C(O)C(F)(F)F [D-Phe-Pro-argininol ditrifluoroacetate, D-Phe-Pro-Arg-CH2 OH×2CF3 COOH]
